In article PMC7144022, “Quinolinecarboxamides Inhibit the Replication of the Bovine Viral Diarrhea Virus by Targeting a Hot Spot for the Inhibition of Pestivirus Replication in the RNA-Dependent RNA Polymerase” (Molecules, 2020):

Columns and labels:
[1] = Cytotoxicity assay, proliferation of exponentially growing MDBK cells (MTS/PMS); format: cell-based, bovine; conditions: bovine
Protocol: Assays were carried out, as described previously.

BVDV NADL virus = experiment: CPE-based antiviral assay, BVDV NADL in MDBK cells (MTS/PMS); conditions: for EC50: Bovine viral diarrhea virus isolates and strains, MDBK, 72 h; for S.I.: selectivity index, CC50 vs EC50
[2] = sheet CSFCI#, potency relative to TO505-6180 (EC50 0.07 µM)
[3] = sheet CSFCII#, potency relative to TO502-2403 (EC50 0.2 µM)

Row | SMILES | CC50 at 5 days [1] [µM] | EC50 (BVDV NADL virus) [µM] | S.I. (BVDV NADL virus) | fold increase (BVDV NADL virus; [2]) | fold increase (BVDV NADL virus; [3])
1 | Cc1cccc2sc(NC(=O)c3cc(-c4ccco4)nc4ccccc34)nc12 [CSFC-35, Cc1cccc2sc(nc12)NC(=O)c1cc(nc2ccccc21)c1ccco1] | > 100 | 0.3 | 333 | 0.23 | –
2 | Cc1noc(C)c1NC(=O)c1cc(-c2ccccc2)nc2ccccc12 [CSFC-36, O=C(Nc1c(C)onc1C)c3cc(nc2ccccc23)c4ccccc4] | > 100 | 47.2 | 2 | – | 0.00424
3 | Cc1noc(C)c1NC(=O)c1cc(-c2ccco2)nc2ccccc12 [CSFC-37, O=C(Nc1c(C)onc1C)c3cc(nc2ccccc23)c4ccco4] | > 100 | 34.2 | 3 | – | 0.00585
4 | COc1ccc2nc(NC(=O)c3cc(-c4ccco4)nc4ccccc34)sc2c1 [CSFC-38, COc1ccc2nc(NC(=O)c3cc(nc4ccccc43)c3ccco3)sc2c1] | > 100 | 0.09 | 1111 | 0.78 | –
5 | Cc1cc2nc(NC(=O)c3cc(-c4ccco4)nc4ccccc34)sc2cc1C [CSFC-39, Cc1cc2nc(NC(=O)c3cc(nc4ccccc43)c3ccco3)sc2cc1C] | > 100 | 0.6 | 167 | 0.12 | –
6 | Cc1cc(NC(=O)c2cc(-c3ccccc3)nc3ccccc23)no1 [CSFC-40, Cc1cc(no1)NC(=O)c3cc(nc2ccccc23)c4ccccc4] | > 100 | 94 | 1 | – | 0.00213
7 | Cc1cc(NC(=O)c2cc(-c3ccccc3)nc3ccccc23)on1 [CSFC-41, O=C(Nc1cc(C)no1)c3cc(nc2ccccc23)c4ccccc4] | > 100 | 34.6 | 3 | – | 0.00578
8 | Cc1cc(NC(=O)c2cc(-c3ccco3)nc3ccccc23)on1 [CSFC-42, O=C(Nc1cc(C)no1)c3cc(nc2ccccc23)c4ccco4] | > 100 | 17.5 | 6 | – | 0.0114
9 | O=C(Nc1cc(-c2ccc(Br)cc2)on1)c1cc(-c2ccccc2)nc2ccccc12 [CSFC-43, O=C(Nc1cc(on1)c2ccc(Br)cc2)c4cc(nc3ccccc34)c5ccccc5] | > 100 | 4 | 26 | – | 0.05
10 | O=C(Nc1ccn(-c2ccccc2)n1)c1cc(-c2ccco2)nc2ccccc12 [CSFC-44, O=C(Nc1ccn(n1)c2ccccc2)c4cc(nc3ccccc34)c5ccco5] | 23 | 2.3 | 10 | – | 0.09
11 | Cc1cccc2sc(NC(=O)c3cc(-c4cccs4)nc4ccccc34)nc12 [CSFC-46, Cc1cccc2sc(nc12)NC(=O)c4cc(nc3ccccc34)c5cccs5] | > 100 | 0.2 | 500 | – | 1.00
12 | O=C(Nc1ccn(-c2ccccc2)n1)c1cc(-c2cccs2)nc2ccccc12 [CSFC-47, O=C(Nc1ccn(n1)c2ccccc2)c4cc(nc3ccccc34)c5cccs5] | > 100 | 1.7 | 59 | – | 0.12
13 | Cc1cccc2sc(NC(=O)c3cc(-c4ccc(Cl)s4)nc4ccccc34)nc12 [CSFC-48, Clc1ccc(s1)c3nc2ccccc2c(c3)C(=O)Nc4nc5c(C)cccc5s4] | 14 ± 0.7 | 14 | 1 | – | 0.0143
14 | Cc1ccc(-c2cc(C(=O)Nc3nc4c(C)cccc4s3)c3ccccc3n2)o1 [CSFC-49, Cc1ccc(o1)c3nc2ccccc2c(c3)C(=O)Nc4nc5c(C)cccc5s4] | > 100 | 0.7 | 143 | – | 0.29
15 | Cc1csc(-c2cc(C(=O)Nc3nc4c(C)cccc4s3)c3ccccc3n2)c1 [CSFC-50, Cc1cc(sc1)c3nc2ccccc2c(c3)C(=O)Nc4nc5c(C)cccc5s4] | > 100 | 1.9 | 53 | – | 0.11
16 | Cc1ccc(-c2cc(C(=O)Nc3ccn(-c4ccccc4)n3)c3ccccc3n2)o1 [CSFC-51, Cc1ccc(o1)c3nc2ccccc2c(c3)C(=O)Nc4ccn(n4)c5ccccc5] | > 100 | 15.2 | 7 | – | 0.0132
17 | Cc1csc(-c2cc(C(=O)Nc3ccn(-c4ccccc4)n3)c3ccccc3n2)c1 [CSFC-52, Cc1cc(sc1)c3nc2ccccc2c(c3)C(=O)Nc4ccn(n4)c5ccccc5] | > 100 | 1.2 | 83 | – | 0.17
18 | O=C(Nc1ccn(-c2ccccc2)n1)c1cc(-c2ccc(Cl)s2)nc2ccccc12 [CSFC-53, Clc1ccc(s1)c3nc2ccccc2c(c3)C(=O)Nc4ccn(n4)c5ccccc5] | > 100 | 77.5 | 1 | – | 0.00258
19 | O=C(Nc1nc2cc(F)ccc2s1)c1cc(-c2ccco2)nc2ccccc12 [CSFC-54, Fc1cc2nc(sc2cc1)NC(=O)c4cc(nc3ccccc34)c5ccco5] | > 100 | 100 | 1 | – | 0.002
20 | O=C(Nc1nc2cc(Cl)ccc2s1)c1cc(-c2ccco2)nc2ccccc12 [CSFC-55, Clc1cc2nc(sc2cc1)NC(=O)c4cc(nc3ccccc34)c5ccco5] | > 100 | 100 | 1 | – | 0.002
21 | CS(=O)(=O)c1ccc2nc(NC(=O)c3cc(-c4ccccc4)nc4ccccc34)sc2c1 [CSFC-56, CS(=O)(=O)c1ccc2nc(sc2c1)NC(=O)c4cc(nc3ccccc34)c5ccccc5] | > 100 | 100 | 1 | – | 0.002
22 | CCOc1ccc2nc(NC(=O)c3cc(-c4ccco4)nc4ccccc34)sc2c1 [CSFC-57, CCOc1ccc2nc(sc2c1)NC(=O)c4cc(nc3ccccc34)c5ccco5] | > 100 | 0.5 | 200 | – | 0.40
23 | CCOc1ccc2nc(NC(=O)c3cc(-c4ccccc4)nc4ccccc34)sc2c1 [CSFC-58, CCOc1ccc2nc(sc2c1)NC(=O)c4cc(nc3ccccc34)c5ccccc5] | > 100 | 3.3 | 30 | – | 0.06
24 | O=C(Nc1nc(-c2ccccc2)cs1)c1cc(-c2ccccc2)nc2ccccc12 [CSFC-60, O=C(Nc1nc(cs1)c2ccccc2)c4cc(nc3ccccc34)c5ccccc5] | > 100 | 0.7 | 143 | – | 0.29
25 | Cc1ccc2nc(NC(=O)c3cc(-c4ccccc4F)nc4ccccc34)sc2c1 [CSFC-61, Fc1ccccc1c3nc2ccccc2c(c3)C(=O)Nc4nc5ccc(C)cc5s4] | > 100 | 0.2 | 500 | – | 1.00
26 | Cc1cccc2sc(NC(=O)c3cc(-c4cccc(F)c4)nc4ccccc34)nc12 [CSFC-62, Fc1cccc(c1)c3nc2ccccc2c(c3)C(=O)Nc4nc5c(C)cccc5s4] | 25 ± 5 | 25 | 1 | – | 0.008
27 | COc1ccc2nc(NC(=O)c3cc(-c4ccco4)nc4ccc(F)cc34)sc2c1 [CSFC-63, Fc1cc2c(cc1)nc(cc2C(=O)Nc3nc4ccc(cc4s3)OC)c5ccco5] | > 100 | 18.8 | 5 | – | 0.0106
28 | COc1ccc2nc(NC(=O)c3cc(-c4ccco4)nc4ccc(OC)cc34)sc2c1 [CSFC-64, O=C(c2cc(nc1ccc(OC)cc12)c3ccco3)Nc4nc5ccc(cc5s4)OC] | > 100 | 16 | 6 | – | 0.0125
29 | COc1ccc2nc(NC(=O)c3cc(-c4ccco4)nc4c(C)cc(C)cc34)sc2c1 [CSFC-65, O=C(c2cc(nc1c2cc(cc1C)C)c3ccco3)Nc4nc5ccc(cc5s4)OC] | > 100 | 5.8 | 17 | – | 0.0345
30 | Cc1cccc2sc(NC(=O)c3cc(-c4ccc(F)cc4)nc4ccccc34)nc12 [CSFC-66, Fc1ccc(cc1)c3nc2ccccc2c(c3)C(=O)Nc4nc5c(C)cccc5s4] | > 100 | 0.2 | 500 | – | 1.00
